Data reported in patent US5320955A, “10'desmethoxystreptonigrin production by Streptomyces albus” (priority 1992, dated 1994).
≈ marks a conversion by molar mass, not a printed value. Where “and” joins values, the source holds several entries; their conditions need not be identical. Equal values may be shown once. Read-outs that look alike come from different tables or passages of the source.

Assays:
[1] = test system: Acinetobacter anitratus; test: Antibacterial activity in vitro, agar dilution MIC; type: cell-based; conditions: Acinetobacter calcoaceticus, SC14207; strain SC# 14207; 37° C., 18 hours; read-out: Minimum Inhibitory Concentration (MIC)
Procedure: (§1) The following methodology was used to determine the minimum inhibitory concentration (hereinafter referred to as MIC) of 10'-desmethoxystreptonigrin against bacteria. The test organisms were grown in 20 ml of Antiobiotic Assay Broth (Difco) by inoculating the broth (in tubes) with a loopful of the organism from a BHI (Difco) agar slant. The inoculated tubes were incubated at 37° C. for 18 to 24 hours. These cultures were assumed to contain 10^9 colony forming units (CFU) per ml. The cultures were diluted 1:100 to give a final inoculum level of 10^7 CFU; dilutions were made with Yeast-Beef Broth (Difco). The test compound was dissolved in an appropriate diluent at a concentration of 1,000 μg/ml. Two-fold dilutions were made in Yeast-Beef Broth (Difco), resulting in a range from 1000 μg/ml to 0.5 μg/ml. A 1.5 ml portion of each dilution was placed into individual petri dishes to which 13.5 ml of K-10 agar was added. The composition of K-10 agar is:
(§2) The medium was sterilized at 121° C. for 15 minutes at 15 lbs. psi.
(§3) The final drug concentration in the agar ranged from 100 μg/mL to 0.05 μg/mL. Organism growth control plates containing agar only were prepared and inoculated before and after the test plates. The organisms were applied to the agar surface of each plate with a Denly Multipoint Inoculator (which delivers approximately 0.001 mL of each inoculum) resulting in a final inoculum of 10^4 CFU on the agar plate.
(§4) The plates were incubated at 37° C. for 18 hours and the MICs determined. The MIC is the lowest concentration of compound inhibiting growth of the organism.

[2] = test system: Nocardia autotrophica; test: Antibacterial activity in vitro, agar dilution MIC; type: cell-based; conditions: Pseudonocardia autotrophica, SC8994; strain SC# 8994; 37° C., 18 hours; read-out: Minimum Inhibitory Concentration (MIC)
Procedure: as §1, §2, §3, §4

[3] = test system: Serratia marcescens; test: Antibacterial activity in vitro, agar dilution MIC; type: cell-based; conditions: SC9783, strain SC# 9783, 37° C., 18 hours, read-out: Minimum Inhibitory Concentration (MIC)
Procedure: as §1, §2, §3, §4

[4] = test system: Streptococcus faecalis; test: Antibacterial activity in vitro, agar dilution MIC; type: cell-based; conditions: Enterococcus faecalis, 37° C., 18 hours, read-out: Minimum Inhibitory Concentration (MIC)
Procedure: as §1, §2, §3, §4

[5] = test system: Proteus vulgaris; test: Antibacterial activity in vitro, agar dilution MIC; type: cell-based; conditions: SC9416, strain SC# 9416, 37° C., 18 hours, read-out: Minimum Inhibitory Concentration (MIC)
Procedure: as §1, §2, §3, §4

[6] = test system: Bacillus subtilis; test: Antibacterial activity in vitro, agar dilution MIC; type: cell-based; conditions: SC3777, strain SC# 3777, 37° C., 18 hours, read-out: Minimum Inhibitory Concentration (MIC)
Procedure: as §1, §2, §3, §4

[7] = test system: Listerella monocytogenes; test: Antibacterial activity in vitro, agar dilution MIC; type: cell-based; conditions: strain SC# 8523; 37° C., 18 hours; read-out: Minimum Inhibitory Concentration (MIC)
Procedure: as §1, §2, §3, §4

[8] = test system: Streptococcus agalactiae; test: Antibacterial activity in vitro, agar dilution MIC; type: cell-based; conditions: 18 hours, read-out: Minimum Inhibitory Concentration (MIC)
Procedure: as §1, §2, §3, §4

[9] = test system: Pseudomonas cepacia; test: Antibacterial activity in vitro, agar dilution MIC; type: cell-based; conditions: Burkholderia cepacia, SC14164; strain SC# 14164; 37° C., 18 hours; read-out: Minimum Inhibitory Concentration (MIC)
Procedure: as §1, §2, §3, §4

[10] = test system: Micrococcus luteus; test: Antibacterial activity in vitro, agar dilution MIC; type: cell-based; conditions: SC2495, strain SC# 2495, 37° C., 18 hours, read-out: Minimum Inhibitory Concentration (MIC)
Procedure: as §1, §2, §3, §4

[11] = test system: Escherichia coli; test: Antibacterial activity in vitro, agar dilution MIC; type: cell-based; conditions: 18 hours, read-out: Minimum Inhibitory Concentration (MIC)
Procedure: as §1, §2, §3, §4

[12] = test system: Pseudomonas aeruginosa; test: Antibacterial activity in vitro, agar dilution MIC; type: cell-based; conditions: read-out: Minimum Inhibitory Concentration (MIC)
Procedure: as §1, §2, §3, §4

[13] = test system: Acinetobacter calcoaceticus; test: Antibacterial activity in vitro, agar dilution MIC; type: cell-based; conditions: SC8333, strain SC# 8333, 37° C., 18 hours, read-out: Minimum Inhibitory Concentration (MIC)
Procedure: as §1, §2, §3, §4

[14] = test system: Enterobacter cloacae; test: Antibacterial activity in vitro, agar dilution MIC; type: cell-based; conditions: SC8236, strain SC# 8236, 37° C., 18 hours, read-out: Minimum Inhibitory Concentration (MIC)
Procedure: as §1, §2, §3, §4

[15] = test system: Shigella sonnei; test: Antibacterial activity in vitro, agar dilution MIC; type: cell-based; conditions: SC8449, strain SC# 8449, 37° C., 18 hours, read-out: Minimum Inhibitory Concentration (MIC)
Procedure: as §1, §2, §3, §4

[16] = test system: Salmonella typhosa; test: Antibacterial activity in vitro, agar dilution MIC; type: cell-based; conditions: Salmonella enterica, SC1195 / TYPHOSA; strain SC# 1195; 37° C., 18 hours; read-out: Minimum Inhibitory Concentration (MIC)
Procedure: as §1, §2, §3, §4

[17] = test system: Staphylococcus aureus; test: Antibacterial activity in vitro, agar dilution MIC; type: cell-based; conditions: 18 hours, read-out: Minimum Inhibitory Concentration (MIC)
Procedure: as §1, §2, §3, §4

[18] = test system: Klebsiella pneumoniae; test: Antibacterial activity in vitro, agar dilution MIC; type: cell-based; conditions: 18 hours, read-out: Minimum Inhibitory Concentration (MIC)
Procedure: as §1, §2, §3, §4

[19] = test system: Proteus mirabilis; test: Antibacterial activity in vitro, agar dilution MIC; type: cell-based; conditions: SC3855, strain SC# 3855, 37° C., 18 hours, read-out: Minimum Inhibitory Concentration (MIC)
Procedure: as §1, §2, §3, §4

[20] = test system: Enterobacter aerogenes; test: Antibacterial activity in vitro, agar dilution MIC; type: cell-based; conditions: Klebsiella aerogenes, SC10078; strain SC# 10078; 37° C., 18 hours; read-out: Minimum Inhibitory Concentration (MIC)
Procedure: as §1, §2, §3, §4

[21] = test system: Mycobacterium fortuitum; test: Antibacterial activity in vitro, agar dilution MIC; type: cell-based; conditions: Mycolicibacterium fortuitum, SC8571; strain SC# 8571; 37° C., 18 hours; read-out: Minimum Inhibitory Concentration (MIC)
Procedure: as §1, §2, §3, §4

[22] = test system: HCT-116 human colon cells; test: In vitro cytotoxicity vs. human tumor cell lines; type: cell-based; conditions: in triplicate, each printed
Procedure: (§5) 10'-Desmethoxystreptonigrin was also tested for cytotoxicity in vitro against human tumor cell lines according to the method of Catino et al., "A microtitre cytotoxicity assay useful for the discovery of fermentation derived antitumor agents", Cancer Chemother., Pharmacol. 15: 240-243 (1985). Modification of the dye employed therein was made according to Scudiero et al., "Evaluation of a soluble tetrazolium/formazan assay for cell growth and drug sensitivity in culture using human and other tumor cell lines," Cancer Research 48:4827-4833,1 (1988). The assays were performed in triplicate against human ovarian (A2780DDP and A2780S) and colon (HCT-116, HCT/VM46 and HCT/VP35) tumor cell lines. Such cell lines are, for example, described by Long et al., "The effects of mitomycin on human colon carcinoma cells," J. Nat. Cancer Inst. 73: 787-792 (1984) (HCT-116) and Masuda et al., "Increased DNA repair as a mechanism of acquired resistance to cis-diamminedichloroplatinum (II) in human ovarian cancer cell lines," Cancer Research 48: 5713-5716 (1988) (A2780 ).

[23] = test system: HCT/VM46 human colon cells; test: In vitro cytotoxicity vs. human tumor cell lines; type: cell-based; conditions: HCT/VM46, resistant to teniposide, in triplicate, each printed
Procedure: as §5

[24] = test system: HCT/VP35 human colon cells; test: In vitro cytotoxicity vs. human tumor cell lines; type: cell-based; conditions: in triplicate, each printed
Procedure: as §5

[25] = target: protein-cysteine farnesyltransferase; test: Inhibition of farnesylation of p21 ras protein; type: biochemical; conditions: assay of Manne et al.; read-out: IC50 in inhibiting the farnesylation of p21 ras protein
[26] = test system: A2780S human ovarian cells; test: cells; type: cell-based
Procedure: as §5

[27] = test system: P388 murine leukemia; test: In vivo tests in mice, intraperitoneally implanted P388 murine leukemia model; conditions: intraperitoneally implanted P388, nontoxic levels
From the text: ^+ In vivo tests in mice using the intraperitoneally implanted P388
lifespan compared to control groups at nontoxic levels of
10desmethoxystreptonigrin.

[28] = test system: tumor; conditions: background statement; cited from earlier work
[29] = background statement; cited from earlier work

Compound: COC1=C(N)C(=O)c2nc(-c3nc(C(=O)O)c(C)c(-c4cccc(OC)c4O)c3N)ccc2C1=O [10'-Desmethoxystreptonigrin, 5'-amino-6'-(7-amino-5,8-dihydro-6-methoxy-5,8-dioxo-2-quinolyl)-4'-(8'-hydroxy-9'-methoxyphenyl)-3'-methyl-2'-pyridinecarboxylic acid]
- MIC [1]: 3.1 mg/L (≈ 6.51 µM)
- MIC [2]: 3.1 mg/L (≈ 6.51 µM)
- MIC [3]: 6.3 mg/L (≈ 13.2 µM)
- MIC ([4]; SC9011, strain SC# 9011): 1.6 mg/L (≈ 3.36 µM)
- MIC ([4]; SC9610, strain SC# 9610): 1.6 mg/L (≈ 3.36 µM)
- MIC [5]: 0.4 mg/L (≈ 0.84 µM)
- MIC [6]: 0.2 mg/L (≈ 0.42 µM)
- MIC [7]: 1.6 mg/L (≈ 3.36 µM)
- MIC ([8]; SC9287, strain SC# 9287, 37° C.): 1.6 mg/L (≈ 3.36 µM)
- MIC ([8]; SC14008, strain SC# 14008, 37° C.): 1.6 mg/L (≈ 3.36 µM)
- MIC [9]: > 25 mg/L
- MIC [10]: 0.4 mg/L (≈ 0.84 µM)
- MIC ([11]; SC8294, strain SC# 8294, 37° C.): 3.1 mg/L (≈ 6.51 µM)
- MIC ([11]; SC10857, strain SC# 10857, 37° C.): 0.8 mg/L (≈ 1.68 µM)
- MIC ([11]; SC10896, strain SC# 10896, 37° C.): 0.4 mg/L (≈ 0.84 µM)
- MIC ([11]; SC10909, strain SC# 10909, 37° C.): < 0.05 mg/L
- MIC ([11]; SC12864, strain SC# 12864, 37° C.): 1.6 mg/L (≈ 3.36 µM)
- MIC ([12]; SC8329, 18 h): 6.3 mg/L (≈ 13.2 µM)
- MIC ([12]; SC9545, strain SC# 9545, 37° C., 18 hours): 1.6 mg/L (≈ 3.36 µM)
- MIC [13]: > 100 mg/L
- MIC [14]: > 100 mg/L
- MIC [15]: 1.6 mg/L (≈ 3.36 µM)
- MIC [16]: 1.6 mg/L (≈ 3.36 µM)
- MIC ([17]; SC1276, strain SC# 1276, 37° C.): 0.4 mg/L (≈ 0.84 µM)
- MIC ([17]; SC2399, strain SC# 2399, 37° C.): 0.2 mg/L (≈ 0.42 µM)
- MIC ([17]; SC2400, strain SC# 2400, 37° C.): 0.2 mg/L (≈ 0.42 µM)
- MIC ([17]; SC10165, strain SC# 10165, 37° C.): 0.2 mg/L (≈ 0.42 µM)
- MIC ([18]; SC9527, strain SC# 9527, 37° C.): 3.1 mg/L (≈ 6.51 µM)
- MIC ([18]; SC10440, strain SC# 10440, 37° C.): 3.1 mg/L (≈ 6.51 µM)
- MIC [19]: 3.1 mg/L (≈ 6.51 µM)
- MIC [20]: 25 mg/L (≈ 52.5 µM)
- MIC [21]: 50 mg/L (≈ 105 µM)
- IC50 cytotoxicity ([22]; HCT-116): 0.003 mg/L (≈ 0.0063 µM)
- IC50 ([22]; Homo sapiens, HCT-116, HCT-116): 0.006 mg/L (≈ 0.0126 µM)
- IC50 cytotoxicity [23]: 0.002 mg/L and < 0.001 mg/L
- IC50 ([23]; Homo sapiens): 0.001 mg/L (≈ 0.0021 µM)
- IC50 cytotoxicity ([24]; HCT/VP35, resistant to etoposide): 0.002 mg/L (≈ 0.0042 µM)
- IC50 ([24]; Homo sapiens, HCT/VP35, HCT/VP35, resistant to etoposide): 0.003 mg/L (≈ 0.0063 µM)
- IC50 [25]: 23.5 µM
- IC50 ([26]; Homo sapiens, read-out: IC50 cytotoxicity, A2780S, in triplicate, each printed): 0.001 mg/L (≈ 0.0021 µM)
- IC50 cytotoxicity ([26]; in triplicate, each printed): 0.002 mg/L and < 0.001 mg/L
- increase in lifespan compared to control groups [27]: no statistically significant increase

Compound: COC1=C(N)C(=O)c2nc(-c3nc(C(=O)O)c(C)c(-c4ccc(OC)c(OC)c4O)c3N)ccc2C1=O [streptonigrin, 5'-amino-6'-(7-amino-5,-8-dihydro-6-methoxy-5,8-dioxo-2-quinolyl)-4'-(8'-hydroxy-9',10'-dimethoxyphenyl)-3'-methyl-2'-pyridinecarboxylic acid]
- activity as an antitumor antibiotic [28]: has shown activity as an antitumor antibiotic
- toxic effect, for example, in bone marrow depression [29]: significant toxic effect
